# Measured values reported in patent US12227501B2, “3-amino-2-[2-(acylamino)pyridin-4-yl]-1,5,6,7-tetrahydro-4h-pyrrolo[3,2-c]pyridin-4-one as CSNK1 inhibitors” (Bayer Aktiengesellschaft, priority 2019, dated 2025).
# Where a name gives a salt, the structure may show the parent alone.
# What was measured:
# Format in all cases: biochemical
# human CSNK1D = human CSNK1D (Homo sapiens (Human), UniProt P48730); test: CSNK1D Assay (ADP-Glo, 1 μM ATP); conditions: read-out: CSNK1D IC50 [mol/l] (median)
# Method: CSNK1 D-inhibitory activity of compounds of the present invention in presence of 1 μM adenosine-tri-phosphate (ATP) was quantified employing the CSNK1D assay as described in the following paragraphs. In essence, the enzyme activity is measured by quantification of the adenosine-di-phosphate (ADP), which is generated as a co-product of the enzyme reaction, via the “ADP-Glo™ Kinase Assay” kit from the company Promega. This detection system works as follows: In a first step the ATP not consumed in the kinase reaction is quantitatively converted to cAMP employing an adenylate cyclase (“ADP-Glo-reagent”), then the adenylate cyclase is stopped and the ADP generated in the kinase reaction converted to ATP which generates in a luciferase-based reaction a glow-luminescence signal (“Kinase Detection Reagent”). Recombinant fusion protein of N-terminal Glutathion-S-Transferase (GST) and full-length human CSNK1D, expressed by baculovirus infected insect cells and purified via Glutathion affinity chromatography, was purchased from Life Technologies (product no. PV3665) and used as enzyme. As substrate for the kinase reaction the biotinylated peptide Btn-Ahx-[…] (C-terminus in amide form) was used which can be purchased e.g. from the company Biosyntan (Berlin-Buch, Germany).
# For the assay 50 nl of a 100 fold concentrated solution of the test compound in DMSO was pipetted into a white 1536-well microtiter plate (Greiner Bio-One, Frickenhausen, Germany), 2 μL of a solution of CSNK1D in aqueous assay buffer [50 mM HEPES pH 7.5, 10% (v/v) glycerol, 10 mM MgCl2, 50 mM NaCl, 1 mM dithiothreitol, 0.01% (w/v) bovine serum albumin, 0.01% (v/v) Triton X-100] were added and the mixture was incubated for 15 min at 22° C. to allow pre-binding of the test compounds to the enzyme before the start of the kinase reaction. […] The concentration of CSNK1 D was adjusted depending of the activity of the enzyme lot and was chosen appropriate to have the assay in the linear range, a typical concentration is about 0.5 ng/μL. The reaction was stopped by the addition of 2.5 μL of “ADP-Glo-reagent” (1:1.5 fold diluted with water) and the resulting mixture was incubated at 22° C. for 1 h to convert the ATP not consumed in the kinase reaction completely […]. Subsequently 2.5 μL of the “kinase detection reagent” (1.2 fold more concentrated than recommended by the producer) were added, the resulting mixture was incubated at 22° C. for 1 h and then the luminescence measured with a suitable measurement instrument (e.g. Viewlux™ from Perkin-Elmer). The amount of emitted light was taken as a measure for the amount of ADP generated and thereby for the activity of the CSNK1D.
# human CSNK1A1 [1] = biological target: T1, human CSNK1A1 (Homo sapiens (Human), UniProt P48729); test: CSNK1A1 High ATP Assay (ADP-Glo, 1 mM ATP); conditions: read-out: CSNK1A1 high ATP assay IC50 [mol/l] (median)
# Method: CSNK1A1-inhibitory activity of compounds of the present invention in presence of 1 mM adenosine-tri-phosphate (ATP) was quantified employing the CSNK1A1-high-ATP-assay as described in the following paragraphs. In essence, the enzyme activity is measured by quantification of the adenosine-di-phosphate (ADP), which is generated as a co-product of the enzyme reaction, via the “ADP-Glo™ Kinase Assay” kit from the company Promega. This detection system works as follows: In a first step the ATP not consumed in the kinase reaction is quantitatively converted to cAMP employing an adenylate cyclase (“ADP-Glo-reagent”), then the adenylate cyclase is stopped and the ADP generated in the kinase reaction converted to ATP which generates in a luciferase-based reaction a glow-luminescence signal (“Kinase Detection Reagent”).
# Recombinant fusion protein of N-terminal Glutathion-S-Transferase (GST) and full-length human CSNK1A1, expressed by baculovirus infected insect cells and purified via Glutathion affinity chromatography, was purchased from Life Technologies (product no. PV4174) and used as enzyme. As substrate for the kinase reaction the biotinylated peptide biotin-Ahx-KRRRAL-pS-VASLPGL (C-terminus in amide form) was used which can be purchased e.g. from the company Biosyntan (Berlin-Buch, Germany).
# For the assay 50 nl of a 100 fold concentrated solution of the test compound in DMSO was pipetted into a white low volume 384-well microtiter plate (Greiner Bio-One, Frickenhausen, Germany), 2 μL of a solution of CSNK1A1 in aqueous assay buffer [50 mM HEPES pH 7.5, 10% (v/v) glycerol, 10 mM MgCl2, 50 mM NaCl, 1 mM dithiothreitol, 0.01% (w/v) bovine serum albumin, 0.01% (v/v) Triton X-100] were added and the mixture was incubated for 15 min at 22° C. to allow pre-binding of the test compounds to the enzyme before the start of the kinase reaction. […] The concentration of CSNK1A1 was adjusted depending of the activity of the enzyme lot and was chosen appropriate to have the assay in the linear range, a typical concentration is about 0.4 ng/μL. The reaction was stopped by the addition of 2.5 μL of “ADP-Glo-reagent” (1:1.5 fold diluted with water) and the resulting mixture was incubated at 22° C. for 1 h to convert the ATP not consumed in the kinase reaction completely […]. Subsequently 2.5 μL of the “kinase detection reagent” (1.2 fold more concentrated than recommended by the producer) were added, the resulting mixture was incubated at 22° C. for 1 h and then the luminescence measured with a suitable measurement instrument (e.g. Viewlux™ from Perkin-Elmer). The amount of emitted light was taken as a measure for the amount of ADP generated and thereby for the activity of the CSNK1A1.
# human CSNK1A1 [2] = biological target: T1, human CSNK1A1; test: CSNK1A1 Assay 2 (ADP-Glo, 1 μM ATP); conditions: substrate biotin-Ahx-KRRRAL-pS-VASLPGL, read-out: CSNK1A1 Assay 2 IC50 [mol/l] (median)
# Method: CSNK1A1-inhibitory activity of compounds of the present invention in presence of 1 μM adenosine-tri-phosphate (ATP) was quantified employing the CSNK1A1 assay as described in the following paragraphs. In essence, the enzyme activity is measured by quantification of the adenosine-di-phosphate (ADP), which is generated as a co-product of the enzyme reaction, via the “ADP-Glo™ Kinase Assay” kit from the company Promega. This detection system works as follows: In a first step the ATP not consumed in the kinase reaction is quantitatively converted to cAMP employing an adenylate cyclase (“ADP-Glo-reagent”), then the adenylate cyclase is stopped and the ADP generated in the kinase reaction converted to ATP which generates in a luciferase-based reaction a glow-luminescence signal (“Kinase Detection Reagent”). Recombinant fusion protein of N-terminal Glutathion-S-Transferase (GST) and full-length human CSNK1A1, expressed by baculovirus infected insect cells and purified via Glutathion affinity chromatography, was purchased from Life Technologies (product no. PV4174) and used as enzyme. As substrate for the kinase reaction the biotinylated peptide biotin-Ahx-KRRRAL-pS-VASLPGL (C-terminus in amide form) was used which can be purchased e.g. from the company Biosyntan (Berlin-Buch, Germany).
# For the assay 50 nl of a 100 fold concentrated solution of the test compound in DMSO was pipetted into a white 1536-well microtiter plate (Greiner Bio-One, Frickenhausen, Germany), 2 μL of a solution of CSNK1A1 in aqueous assay buffer [50 mM HEPES pH 7.5, 10% (v/v) glycerol, 10 mM MgCl2, 50 mM NaCl, 1 mM dithiothreitol, 0.01% (w/v) bovine serum albumin, 0.01% (v/v) Triton X-100] were added and the mixture was incubated for 15 min at 22° C. to allow pre-binding of the test compounds to the enzyme before the start of the kinase reaction. […] The concentration of CSNK1A1 was adjusted depending of the activity of the enzyme lot and was chosen appropriate to have the assay in the linear range, a typical concentrations are about 0.0375 ng/μL. The reaction was stopped by the addition of 2.5 μL of “ADP-Glo-reagent” (1:1.5 fold diluted with water) and the resulting mixture was incubated at 22° C. for 1 h to convert the ATP not consumed in the kinase reaction completely […]. Subsequently 2.5 μL of the “kinase detection reagent” (1.2 fold more concentrated than recommended by the producer) were added, the resulting mixture was incubated at 22° C. for 1 h and then the luminescence measured with a suitable measurement instrument (e.g. Viewlux™ from Perkin-Elmer). The amount of emitted light was taken as a measure for the amount of ADP generated and thereby for the activity of the CSNK1A1.
# [3] = biological target: wild-type Epidermal Growth Factor Receptor (EGFR) (Homo sapiens (Human), UniProt P00533); test: WT-EGFR Kinase Assay (TR-FRET, 2 mM ATP); conditions: EGFR Wildtyp- 2 mM ATP IC50 [mol/l] (median)
# wild-type Epidermal Growth Factor Receptor (EGFR), sequence (P00533 669-1210): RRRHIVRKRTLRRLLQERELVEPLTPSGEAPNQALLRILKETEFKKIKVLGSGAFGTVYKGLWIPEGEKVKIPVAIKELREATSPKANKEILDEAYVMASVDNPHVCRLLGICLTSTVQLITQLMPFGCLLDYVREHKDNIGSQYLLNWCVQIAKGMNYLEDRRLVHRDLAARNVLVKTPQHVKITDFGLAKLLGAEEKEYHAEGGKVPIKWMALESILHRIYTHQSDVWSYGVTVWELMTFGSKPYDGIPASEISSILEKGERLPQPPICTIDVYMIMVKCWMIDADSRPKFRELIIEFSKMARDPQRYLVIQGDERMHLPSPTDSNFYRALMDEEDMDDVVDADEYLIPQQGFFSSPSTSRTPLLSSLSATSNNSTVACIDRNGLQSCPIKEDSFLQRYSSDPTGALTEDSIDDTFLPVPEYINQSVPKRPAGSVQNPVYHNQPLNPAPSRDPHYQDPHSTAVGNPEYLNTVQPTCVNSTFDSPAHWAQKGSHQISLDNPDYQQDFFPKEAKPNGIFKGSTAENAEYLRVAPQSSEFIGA
# T1 sequence (P48729 whole entry): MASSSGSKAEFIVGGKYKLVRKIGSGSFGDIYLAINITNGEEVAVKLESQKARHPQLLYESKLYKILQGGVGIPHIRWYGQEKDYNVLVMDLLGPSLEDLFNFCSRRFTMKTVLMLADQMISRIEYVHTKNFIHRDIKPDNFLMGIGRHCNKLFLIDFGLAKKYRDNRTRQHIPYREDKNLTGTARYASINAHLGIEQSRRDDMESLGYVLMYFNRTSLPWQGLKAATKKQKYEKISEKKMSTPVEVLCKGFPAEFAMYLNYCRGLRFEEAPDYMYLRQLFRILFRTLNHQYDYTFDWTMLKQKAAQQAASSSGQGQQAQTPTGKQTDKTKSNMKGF
# human CSNK1D, sequence (P48730 whole entry): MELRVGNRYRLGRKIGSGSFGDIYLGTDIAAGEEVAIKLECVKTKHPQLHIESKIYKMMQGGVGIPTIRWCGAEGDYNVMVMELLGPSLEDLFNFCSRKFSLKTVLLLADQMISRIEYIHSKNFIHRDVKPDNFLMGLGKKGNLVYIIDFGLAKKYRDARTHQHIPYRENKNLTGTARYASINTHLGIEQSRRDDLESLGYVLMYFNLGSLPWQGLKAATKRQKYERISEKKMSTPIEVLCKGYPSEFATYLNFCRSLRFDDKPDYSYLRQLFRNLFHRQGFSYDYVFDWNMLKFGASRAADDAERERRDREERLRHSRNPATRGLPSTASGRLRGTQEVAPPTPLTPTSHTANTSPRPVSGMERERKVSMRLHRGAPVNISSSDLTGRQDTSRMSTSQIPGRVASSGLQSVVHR
Compound,IC50 (human CSNK1D) [nM],IC50 (human CSNK1A1 [1]) [nM],IC50 (human CSNK1A1 [2]) [nM],IC50 [3] [nM]
"CC1Cc2[nH]c(-c3ccnc(NC(=O)Cc4ccc(F)cc4)c3)c(Nc3ccccc3F)c2C(=O)N1C (racemic) [Example 100, N-{4-[3-(2-fluoroanilino)-5,6-dimethyl-4-oxo-4,5,6,7-tetrahydro-1H-pyrrolo[3,2-c]pyridin-2-yl]pyridin-2-yl}-2-(4-fluorophenyl)acetamide]",15.6,254,3.97,3830
"CC1(C)Cc2[nH]c(-c3ccnc(NC(=O)C(CC(F)F)c4ccc(F)cc4)c3)c(Nc3cccc(F)c3Cl)c2C(=O)N1 (racemic) [Example 109, N-{4-[3-(2-chloro-3-fluoroanilino)-6,6-dimethyl-4-oxo-4,5,6,7-tetrahydro-1H-pyrrolo[3,2-c]pyridin-2-yl]pyridin-2-yl}-4,4-difluoro-2-(4-fluorophenyl)butanamide]",14.1,136,16.4,> 20000
"CC1(C)Cc2[nH]c(-c3ccnc(NC(=O)C(CC(F)F)c4ccc(S(C)(=O)=O)cc4)c3)c(Nc3ccccc3)c2C(=O)N1 (racemic) [Example 118, N-[4-(3-anilino-6,6-dimethyl-4-oxo-4,5,6,7-tetrahydro-1H-pyrrolo[3,2-c]pyridin-2-yl)pyridin-2-yl]-4,4-difluoro-2-[4-(methanesulfonyl)phenyl]butanamide (Racemate)]",12.9,107,5.16,7260
"O=C1NC2(CCC2)Cc2[nH]c(-c3ccnc(NC(=O)C(CC(F)F)c4ccc(F)cc4)c3)c(Nc3cccc(F)c3Cl)c21 (racemic) [Example 123, N-{4-[3′-(2-chloro-3-fluoroanilino)-4′-oxo-1′,4′,5′,7′-tetrahydrospiro[cyclobutane-1,6′-pyrrolo[3,2-c]pyridin]-2′-yl]pyridin-2-yl}-4,4-difluoro-2-(4-fluorophenyl)butanamide (Racemate)]",9.91,29.1,13.5,56.4
"CC1(C)Cc2[nH]c(-c3ccnc(NC(=O)C(CC(F)F)c4ccc(F)cc4)c3)c(Nc3cccc(F)n3)c2C(=O)N1 (racemic) [Example 128, 4,4-difluoro-2-(4-fluorophenyl)-N-(4-{3-[(6-fluoropyridin-2-yl)amino]-6,6-dimethyl-4-oxo-4,5,6,7-tetrahydro-1H-pyrrolo[3,2-c]pyridin-2-yl}pyridin-2-yl)butanamide (Racemate)]",11.4,31.4,7.16,> 20000
"Cc1ccccc1Nc1c(-c2ccnc(NC(=O)C(C)c3ccc(F)cc3)c2)[nH]c2c1C(=O)NC(C)(C)C2 (racemic) [Example 132, N-{4-[6,6-dimethyl-3-(2-methylanilino)-4-oxo-4,5,6,7-tetrahydro-1H-pyrrolo[3,2-c]pyridin-2-yl]pyridin-2-yl}-2-(4-fluorophenyl)propanamide (Racemate)]",32.9,915,24.3,> 20000
"Cc1ccccc1Nc1c(-c2ccnc(NC(=O)C(CC(F)F)c3ccc(F)cc3)c2)[nH]c2c1C(=O)NC(C)(C)C2 (racemic) [Example 135, N-{4-[6,6-dimethyl-3-(2-methylanilino)-4-oxo-4,5,6,7-tetrahydro-1H-pyrrolo[3,2-c]pyridin-2-yl]pyridin-2-yl}-4,4-difluoro-2-(4-fluorophenyl)butanamide (Racemate)]",19.9,365,25.8,> 20000
"CC1(C)Cc2[nH]c(-c3ccnc(NC(=O)C(CNC(=O)OC(C)(C)C)c4ccc(F)cc4)c3)c(Nc3ccccc3)c2C(=O)N1 (racemic) [Example 138, tert-butyl [3-{[4-(3-anilino-6,6-dimethyl-4-oxo-4,5,6,7-tetrahydro-1H-pyrrolo[3,2-c]pyridin-2-yl)pyridin-2-yl]amino}-2-(4-fluorophenyl)-3-oxopropyl]carbamate (Racemate)]",22.4,430,16.6,11100
"CC1(C)Cc2[nH]c(-c3ccnc(NC(=O)C(CN)c4ccc(F)cc4)c3)c(Nc3ccccc3)c2C(=O)N1 (racemic) [Example 139, 3-amino-N-[4-(3-anilino-6,6-dimethyl-4-oxo-4,5,6,7-tetrahydro-1H-pyrrolo[3,2-c]pyridin-2-yl)pyridin-2-yl]-2-(4-fluorophenyl)propanamide-hydrogen chloride salt (Racemate)]",7.73,41.4,3.21,681
